Data on 19 molecules can be found in patent US12122761B2, “2-azaspiro[3.4]octane derivatives as M4 agonists” (NOVARTIS AG, priority 2019, dated 2024).

Where only a bound is given, the exact number is not on record here.

This assay addresses T1, human cloned CHRM3 receptor (M3_CHO cells) (Homo sapiens, UniProt P20309).
T1 construct: expressed in transfected cells; host or cells: CHO-K1
The assay is described as follows: CHRM3 Ca++ Flux Assay (agonist mode, FDSS 7000EX). The following applies: for M3 FDSS PA / Emax: Percent Activity measured to EC100 of Carbachol; for EC50: agonist mode, geometric mean if tested more than once, read-out: M3 FDSS EC50; for Emax: read-out: M3 FDSS PA. Format: cell-based. The method in brief: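 CHO-K1 cells stably expressing human M3 or M5 receptor were dye-loaded for at least 1 h in HBSS with 20 mM HEPES and 2.5 mM probenecid, then given 11-point compound doses in triplicate.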

T1 sequence (P20309 whole entry): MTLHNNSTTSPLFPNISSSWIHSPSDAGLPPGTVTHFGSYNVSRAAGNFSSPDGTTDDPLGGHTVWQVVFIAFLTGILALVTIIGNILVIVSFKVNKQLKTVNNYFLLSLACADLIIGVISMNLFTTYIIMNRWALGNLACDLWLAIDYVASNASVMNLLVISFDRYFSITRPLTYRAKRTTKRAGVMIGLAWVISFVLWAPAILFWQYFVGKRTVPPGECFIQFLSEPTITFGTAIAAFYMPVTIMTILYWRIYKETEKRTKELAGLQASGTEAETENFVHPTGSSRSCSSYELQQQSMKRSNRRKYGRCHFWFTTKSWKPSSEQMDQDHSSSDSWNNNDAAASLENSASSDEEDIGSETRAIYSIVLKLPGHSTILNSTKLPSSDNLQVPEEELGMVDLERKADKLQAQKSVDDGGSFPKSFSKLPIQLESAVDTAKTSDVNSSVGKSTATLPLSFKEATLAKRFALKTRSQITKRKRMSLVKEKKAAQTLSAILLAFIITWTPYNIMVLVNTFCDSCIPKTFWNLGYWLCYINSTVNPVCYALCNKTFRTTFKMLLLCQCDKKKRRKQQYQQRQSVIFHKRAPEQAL

The term EC50 denotes the midpoint of the concentration-response curve. Take `Fc1ccc(OC2CC3(COC3)C2)c(C2CCN([C@@H]3CCC4(C3)CN(c3cncnc3)C4)CC2)c1` (single isomer, unassigned) [Example 10F, (R)-6-(4-(2-((2-oxaspiro[3.3]heptan-6-yl)oxy)-5-fluorophenyl)piperidin-1-yl)-2-(pyrimidin-5-yl)-2-azaspiro[3.4]octane or (S)-6-(4-(2-((2-oxaspiro[3.3]heptan-6-yl)oxy)-5-fluorophenyl)piperidin-1-yl)-2-(pyrimidin-5-yl)-2-azaspiro[3.4]octane]: the “M3 FDSS PA” value came out at 0% and the EC50 is > 25 µM.
The like results for `O=C(N1CC2(CC[C@@H](N3CCC(c4cc(F)ccc4C4CCOCC4)CC3)C2)C1)C1(F)CC1` (single isomer, unassigned) [Example 9K, (R)-(6-(4-(5-fluoro-2-(tetrahydro-2H-pyran-4-yl)phenyl)piperidin-1-yl)-2-azaspiro[3.4]octan-2-yl)(1-fluorocyclopropyl)methanone or (S)-(6-(4-(5-fluoro-2-(tetrahydro-2H-pyran-4-yl)phenyl)piperidin-1-yl)-2-azaspiro[3.4]octan-2-yl)(1-fluorocyclopropyl)methanone] were, in that order, −1% and > 25 µM.
The like results for `O[C@H]1CC[C@@H](c2ccccc2C2CCN([C@@H]3CCC4(C3)CN(c3nnco3)C4)CC2)CC1` (single isomer, unassigned) [Example 2N, (1S,4s)-4-(2-(1-((R)-2-(1,3,4-oxadiazol-2-yl)-2-azaspiro[3.4]octan-6-yl)piperidin-4-yl)phenyl)cyclohexan-1-ol or (1R,4r)-4-(2-(1-((R)-2-(1,3,4-oxadiazol-2-yl)-2-azaspiro[3.4]octan-6-yl)piperidin-4-yl)phenyl)cyclohexan-1-ol] were, in that order, 0% and > 25 µM.
The like results for `Fc1ccc(OC2CCOCC2)c(C2CCN([C@@H]3CCC4(C3)CN(c3cncnc3)C4)CC2)c1` (single isomer, unassigned) [Example 10G, (R)-6-(4-(5-fluoro-2-((tetrahydro-2H-pyran-4-yl)oxy)phenyl)piperidin-1-yl)-2-(pyrimidin-5-yl)-2-azaspiro[3.4]octane or (S)-6-(4-(5-fluoro-2-((tetrahydro-2H-pyran-4-yl)oxy)phenyl)piperidin-1-yl)-2-(pyrimidin-5-yl)-2-azaspiro[3.4]octane] were, in that order, 0% and > 25 µM.
`COc1ccccc1C1CCN([C@@H]2CCC3(C2)CN(c2ccc(Cl)nn2)C3)CC1` [Example 5N, (R)-2-(6-chloropyridazin-3-yl)-6-(4-(2-methoxyphenyl)piperidin-1-yl)-2-azaspiro[3.4]octane]: the Emax was 9% and the EC50 was found to be 11.3 µM.
With `O=C(N1CC2(CC[C@@H](N3CCC(c4ccccc4OC4CCOCC4)CC3)C2)C1)C1(F)CC1` (single isomer, unassigned) [Example 9E, (R)-(1-fluorocyclopropyl)(6-(4-(2-((tetrahydro-2H-pyran-4-yl)oxy)phenyl)piperidin-1-yl)-2-azaspiro[3.4]octan-2-yl)methanone or (S)-(1-fluorocyclopropyl)(6-(4-(2-((tetrahydro-2H-pyran-4-yl)oxy)phenyl)piperidin-1-yl)-2-azaspiro[3.4]octan-2-yl)methanone], the “M3 FDSS PA” value is given as 0% and the concentration giving a half-maximal response (EC50) was > 25 µM.
Consider `CC(C)(O)COc1ccccc1C1CCN([C@@H]2CCC3(C2)CN(c2cncnc2)C3)CC1` [Example 5B, (R)-2-methyl-1-(2-(1-(2-(pyrimidin-5-yl)-2-azaspiro[3.4]octan-6-yl)piperidin-4-yl)phenoxy)propan-2-ol], for which the Emax came out at 0% and the EC50 is > 25 µM.
As for `COc1ccccc1C1CCN([C@@H]2CCC3(C2)CN(c2ncnc(C)n2)C3)CC1` [Example 5M, (R)-6-(4-(2-methoxyphenyl)piperidin-1-yl)-2-(4-methyl-1,3,5-triazin-2-yl)-2-azaspiro[3.4]octane], the Emax worked out at 0% and the EC50 was > 25 µM.
As for `O=C(N1CC2(CC[C@@H](N3CCC(c4ccccc4OCCO)CC3)C2)C1)C1(F)CC1` (single isomer, unassigned) [Example 7N, (R)-(1-fluorocyclopropyl)(6-(4-(2-(2-hydroxyethoxy)phenyl)piperidin-1-yl)-2-azaspiro[3.4]octan-2-yl)methanone or (S)-(1-fluorocyclopropyl)(6-(4-(2-(2-hydroxyethoxy)phenyl)piperidin-1-yl)-2-azaspiro[3.4]octan-2-yl)methanone], the “M3 FDSS PA” value was 0% and the EC50 was > 25 µM.
Take `Cc1nnc(COc2ccccc2C2CCN([C@@H]3CCC4(C3)CN(C(=O)C3(F)CC3)C4)CC2)o1` (single isomer, unassigned) [Example 7W, (R)-(1-fluorocyclopropyl)(6-(4-(2-((5-methyl-1,3,4-oxadiazol-2-yl)methoxy)phenyl)piperidin-1-yl)-2-azaspiro[3.4]octan-2-yl)methanone or (S)-(1-fluorocyclopropyl)(6-(4-(2-((5-methyl-1,3,4-oxadiazol-2-yl)methoxy)phenyl)piperidin-1-yl)-2-azaspiro[3.4]octan-2-yl)methanone]: the “M3 FDSS PA” value was 0% and the EC50 is > 25 µM.
The like results for `Cc1nnc(COc2ccccc2C2CCN([C@@H]3CCC4(C3)CN(C(=O)C3(F)CC3)C4)CC2)s1` (single isomer, unassigned) [Example 7R, (R)-(1-fluorocyclopropyl)(6-(4-(2-((5-methyl-1,3,4-thiadiazol-2-yl)methoxy)phenyl)piperidin-1-yl)-2-azaspiro[3.4]octan-2-yl)methanone or (S)-(1-fluorocyclopropyl)(6-(4-(2-((5-methyl-1,3,4-thiadiazol-2-yl)methoxy)phenyl)piperidin-1-yl)-2-azaspiro[3.4]octan-2-yl)methanone] were, in that order, 0% and > 25 µM.
The like results for `O=C(N1CC2(CC[C@@H](N3CCC(c4cc(F)ccc4C4(O)CCOCC4)CC3)C2)C1)C1(F)CC1` (single isomer, unassigned) [Example 9J, (R)-(6-(4-(5-fluoro-2-(4-hydroxytetrahydro-2H-pyran-4-yl)phenyl)piperidin-1-yl)-2-azaspiro[3.4]octan-2-yl)(1-fluorocyclopropyl)methanone or (S)-(6-(4-(5-fluoro-2-(4-hydroxytetrahydro-2H-pyran-4-yl)phenyl)piperidin-1-yl)-2-azaspiro[3.4]octan-2-yl)(1-fluorocyclopropyl)methanone] were, in that order, 0% and > 25 µM.
The like results for `Fc1cncc(N2CC3(CC[C@@H](N4CCC(c5cc(F)ccc5OC5CCOCC5)CC4)C3)C2)c1` (single isomer, unassigned) [Example 10B, (R)-6-(4-(5-fluoro-2-((tetrahydro-2H-pyran-4-yl)oxy)phenyl)piperidin-1-yl)-2-(5-fluoropyridin-3-yl)-2-azaspiro[3.4]octane or (S)-6-(4-(5-fluoro-2-((tetrahydro-2H-pyran-4-yl)oxy)phenyl)piperidin-1-yl)-2-(5-fluoropyridin-3-yl)-2-azaspiro[3.4]octane] were, in that order, 0% and > 25 µM.
As for `O=C(N1CC2(CC[C@@H](N3CCC(c4ccccc4C4(O)CCOCC4)CC3)C2)C1)C1(F)CC1` (single isomer, unassigned) [Example 9H, (R)-(1-fluorocyclopropyl)(6-(4-(2-(4-hydroxytetrahydro-2H-pyran-4-yl)phenyl)piperidin-1-yl)-2-azaspiro[3.4]octan-2-yl)methanone or (S)-(1-fluorocyclopropyl)(6-(4-(2-(4-hydroxytetrahydro-2H-pyran-4-yl)phenyl)piperidin-1-yl)-2-azaspiro[3.4]octan-2-yl)methanone], the “M3 FDSS PA” value was 0% and the concentration giving a half-maximal response (EC50) was > 25 µM.
In the case of `Fc1ccc(OC2CCOCC2)c(C2CCN([C@@H]3CCC4(C3)CN(c3cncnc3)C4)CC2)c1` (single isomer, unassigned) [Example 10H, (R)-6-(4-(5-fluoro-2-((tetrahydro-2H-pyran-4-yl)oxy)phenyl)piperidin-1-yl)-2-(pyrimidin-5-yl)-2-azaspiro[3.4]octane or (S)-6-(4-(5-fluoro-2-((tetrahydro-2H-pyran-4-yl)oxy)phenyl)piperidin-1-yl)-2-(pyrimidin-5-yl)-2-azaspiro[3.4]octane], the “M3 FDSS PA” value is on record as 0% and the EC50 is > 25 µM.
`COc1ccccc1C1CCN([C@@H]2CCC3(C2)CN(c2cncc(F)c2)C3)CC1` [Example 5F, (R)-2-(5-fluoropyridin-3-yl)-6-(4-(2-methoxyphenyl)piperidin-1-yl)-2-azaspiro[3.4]octane]: the Emax was 0% and the half-maximal effective concentration (EC50) is > 25 µM.
The like results for `COc1ccccc1C1CCN([C@@H]2CCC3(C2)CN(c2ccc(C)nc2)C3)CC1` [Example 5D, (R)-6-(4-(2-methoxyphenyl)piperidin-1-yl)-2-(6-methylpyridin-3-yl)-2-azaspiro[3.4]octane] were, in that order, 0% and > 25 µM.
The like results for `COc1ccccc1C1CCN([C@@H]2CCC3(C2)CN(c2ncon2)C3)CC1` [Example 4A, (R)-3-(6-(4-(2-methoxyphenyl)piperidin-1-yl)-2-azaspiro[3.4]octan-2-yl)-1,2,4-oxadiazole] were, in that order, 0% and > 25 µM.
Regarding `Cc1nnc(COc2ccccc2C2CCN([C@@H]3CCC4(C3)CN(C(=O)C3(F)CC3)C4)CC2)o1` (single isomer, unassigned) [Example 7Y, (R)-(1-fluorocyclopropyl)(6-(4-(2-((5-methyl-1,3,4-oxadiazol-2-yl)methoxy)phenyl)piperidin-1-yl)-2-azaspiro[3.4]octan-2-yl)methanone or (S)-(1-fluorocyclopropyl)(6-(4-(2-((5-methyl-1,3,4-oxadiazol-2-yl)methoxy)phenyl)piperidin-1-yl)-2-azaspiro[3.4]octan-2-yl)methanone], the “M3 FDSS PA” value is on record as 0% and the EC50 was > 25 µM.
